Measurements: PubChem BioAssay AID248 (DTP/NCI, 2004)
Several values for one entry are separate records, joined by “and”; a condition that tells them apart may be missing. Equal entries are not always repeated. Toxic doses and inconclusive results are not listed.

System: L1210 leukemia ip in BDF1 mice, survival T/C
Assay: NCI In Vivo Anticancer Drug Screen. Data for tumor model L1210 Leukemia (intraperitoneal) in B6D2F1 (BDF1) mice
Settings: endpoint: mean survival time, higher = longer survival
In short: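 Survival endpoint. Drug-treated group vs vehicle group, expressed as T divided by C. Tumor passaged by transplantation.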

[1] = dose: 25.0 mg/kg/injection, schedule: Q04DX003 (ip), vehicle: Klucel (hydroxypropylcellulose) (HPC)
[2] = dose: 50.0 mg/kg/injection, schedule: Q04DX003 (ip), vehicle: Klucel (hydroxypropylcellulose) (HPC)
[3] = dose: 100.0 mg/kg/injection, schedule: Q04DX003 (ip), vehicle: saline
[4] = dose: 200.0 mg/kg/injection, schedule: Q04DX003 (ip), vehicle: saline
[5] = dose: 400.0 mg/kg/injection, schedule: Q04DX003 (ip), vehicle: saline
[6] = dose: 100.0 mg/kg/injection, schedule: Q01DX009 (ip), vehicle: Klucel (hydroxypropylcellulose) (HPC)
[7] = dose: 200.0 mg/kg/injection, schedule: Q01DX009 (ip), vehicle: Klucel (hydroxypropylcellulose) (HPC)
[8] = dose: 400.0 mg/kg/injection, schedule: Q01DX009 (ip), vehicle: Klucel (hydroxypropylcellulose) (HPC)
[9] = dose: 100.0 mg/kg/injection, schedule: Q04DX003 (ip), vehicle: saline with Tween-80
[10] = dose: 200.0 mg/kg/injection, schedule: Q04DX003 (ip), vehicle: saline with Tween-80
[11] = dose: 400.0 mg/kg/injection, schedule: Q04DX003 (ip), vehicle: saline with Tween-80
[12] = dose: 100.0 mg/kg/injection, schedule: Q04DX002 (ip), vehicle: saline
[13] = dose: 200.0 mg/kg/injection, schedule: Q04DX002 (ip), vehicle: saline
[14] = dose: 100.0 mg/kg/injection, schedule: Q04DX003 (ip), vehicle: Klucel (hydroxypropylcellulose) (HPC)
[15] = dose: 200.0 mg/kg/injection, schedule: Q04DX003 (ip), vehicle: Klucel (hydroxypropylcellulose) (HPC)
[16] = dose: 400.0 mg/kg/injection, schedule: Q04DX003 (ip), vehicle: Klucel (hydroxypropylcellulose) (HPC)
[17] = dose: 100.0 mg/kg/injection, schedule: Q01DX009 (ip), vehicle: saline with Tween-80

## O=S1(=O)C(Cl)=C(Cl)C2C3CC(C(Cl)C3Cl)C21 (centres undefined)
dose: 50.0 mg/kg/injection, schedule: Q01DX009 (ip), vehicle: acetone
  T/C: 95 % of control
dose: 100.0 mg/kg/injection, schedule: Q01DX009 (ip), vehicle: acetone
  T/C: 93 % of control
dose: 100.0 mg/kg/injection, schedule: Q04DX003 (ip), vehicle: acetone
  T/C: 92 % of control
dose: 200.0 mg/kg/injection, schedule: Q01DX009 (ip), vehicle: acetone
  T/C: 98 % of control
dose: 200.0 mg/kg/injection, schedule: Q04DX003 (ip), vehicle: acetone
  T/C: 101 % of control
dose: 400.0 mg/kg/injection, schedule: Q04DX003 (ip), vehicle: acetone
  T/C: 92 % of control

## Oc1ccc(O)c2c1C1(Cl)C(Cl)=C(Cl)C2(Cl)C1(Cl)Cl
dose: 100.0 mg/kg/injection, schedule: Q04DX003 (ip), vehicle: other
  T/C: 101 % of control
dose: 200.0 mg/kg/injection, schedule: Q04DX003 (ip), vehicle: other
  T/C: 101 % of control
dose: 400.0 mg/kg/injection, schedule: Q04DX003 (ip), vehicle: other
  T/C: 108 % of control

## CCCCCCCCCCCCCCCCCCNC(=O)Nc1c(C)cc(C)cc1C
dose: 100.0 mg/kg/injection, schedule: Q01DX009 (ip), vehicle: gum acacia
  T/C: 94 % of control
dose: 100.0 mg/kg/injection, schedule: Q04DX003 (ip), vehicle: gum acacia
  T/C: 90 % of control
dose: 200.0 mg/kg/injection, schedule: Q01DX009 (ip), vehicle: gum acacia
  T/C: 87 % of control
dose: 200.0 mg/kg/injection, schedule: Q04DX003 (ip), vehicle: gum acacia
  T/C: 93 % of control
dose: 400.0 mg/kg/injection, schedule: Q01DX009 (ip), vehicle: gum acacia
  T/C: 94 % of control
dose: 400.0 mg/kg/injection, schedule: Q04DX003 (ip), vehicle: gum acacia
  T/C: 87 % of control

## Cc1cc(C)c(NC(=O)N(CCCl)N=O)c(C)c1
dose: 11.25 mg/kg/injection, schedule: Q01DX001 (ip), vehicle: other
  T/C: 155 % of control
dose: 15.0 mg/kg/injection, schedule: Q01DX001 (ip), vehicle: other
  T/C: 150 % of control
dose: 16.0 mg/kg/injection, schedule: Q01DX001 (ip), vehicle: other
  T/C: 174 % of control
dose: 20.0 mg/kg/injection, schedule: Q01DX001 (ip), vehicle: other
  T/C: 203 % of control
dose: 22.5 mg/kg/injection, schedule: Q01DX001 (ip), vehicle: other
  T/C: 234 % of control
dose: 25.0 mg/kg/injection, schedule: Q01DX001 (ip), vehicle: other
  T/C: 166 % of control
dose: 30.0 mg/kg/injection, schedule: Q01DX001 (ip), vehicle: other
  T/C: 191 % of control
dose: 31.0 mg/kg/injection, schedule: Q01DX001 (ip), vehicle: other
  T/C: 165 % of control
dose: 38.0 mg/kg/injection, schedule: Q01DX001 (ip), vehicle: other
  T/C: 201 % of control
dose: 45.0 mg/kg/injection, schedule: Q01DX001 (ip), vehicle: other
  T/C: 252 % of control and 322 % of control
dose: 57.0 mg/kg/injection, schedule: Q01DX001 (ip), vehicle: other
  T/C: 262 % of control
dose: 62.0 mg/kg/injection, schedule: Q01DX001 (ip), vehicle: other
  T/C: 217 % of control
dose: 86.0 mg/kg/injection, schedule: Q01DX001 (ip), vehicle: other
  T/C: 227 % of control
dose: 90.0 mg/kg/injection, schedule: Q01DX001 (ip), vehicle: other
  T/C: 100 % of control

## CCOC(=O)C(=O)CC1=NC2CCCCC2N(C)C1=O (centres undefined)
dose: 50.0 mg/kg/injection, schedule: Q01DX009 (ip), vehicle: saline
  T/C: 93 % of control
dose: 100.0 mg/kg/injection, schedule: Q01DX009 (ip), vehicle: saline
  T/C: 90 % of control
dose: 200.0 mg/kg/injection, schedule: Q01DX009 (ip), vehicle: saline
  T/C: 90 % of control

## CC(C)(C)c1cc(CN2CCCCC2)cc(C(C)(C)C)c1O
dose: 12.5 mg/kg/injection, schedule: Q04DX003 (ip), vehicle: Klucel (hydroxypropylcellulose) (HPC)
  T/C: 101 % of control
[1]
  T/C: 114 % of control
[2]
  T/C: 97 % of control

## CC1(C)CC([NH-])CC(C)(C)N1O.CC1(C)CC([NH-])CC(C)(C)N1O.[Cl][Pd][Cl]
[3]
  T/C: 94 % of control
[4]
  T/C: 105 % of control
[5]
  T/C: 90 % of control

## Nc1nc(N)nc(SCCO)n1
[6]
  T/C: 99 % of control
[7]
  T/C: 110 % of control
[8]
  T/C: 93 % of control

## O=C(O)c1cc(Cl)ccc1Br
dose: 50.0 mg/kg/injection, schedule: Q01DX009 (ip), vehicle: Klucel (hydroxypropylcellulose) (HPC)
  T/C: 104 % of control
[6]
  T/C: 100 % of control
[9]
  T/C: 100 % of control
[7]
  T/C: 105 % of control
[10]
  T/C: 104 % of control
[11]
  T/C: 94 % of control

## CCOC(=O)C1(C#N)C(=O)CSC1=Nc1ccccc1Cl (centres undefined)
dose: 100.0 mg/kg/injection, schedule: Q04DX002 (ip), vehicle: saline with Tween-80
  T/C: 95 % of control
dose: 200.0 mg/kg/injection, schedule: Q04DX002 (ip), vehicle: saline with Tween-80
  T/C: 102 % of control
dose: 400.0 mg/kg/injection, schedule: Q04DX002 (ip), vehicle: saline with Tween-80
  T/C: 95 % of control

## CCOC(=O)NCC(CCN(CC)CC)(c1cccc2ccccc12)C(C)CC (centres undefined)
[12]
  T/C: 93 % of control
[13]
  T/C: 90 % of control
dose: 400.0 mg/kg/injection, schedule: Q04DX002 (ip), vehicle: saline
  T/C: 100 % of control

## O=C1c2ccccc2C(O)(O)C1(O)C1(O)C(=O)c2ccccc2C1(O)O (centres undefined)
dose: 100.0 mg/kg/injection, schedule: Q01DX001 (ip), vehicle: carboxymethylcellulose (CMC)
  T/C: 109 % of control
dose: 200.0 mg/kg/injection, schedule: Q01DX001 (ip), vehicle: carboxymethylcellulose (CMC)
  T/C: 103 % of control

## N#CC(=C1c2ccccc2-c2ccccc21)c1ccccc1
[14]
  T/C: 100 % of control
[15]
  T/C: 105 % of control
[16]
  T/C: 98 % of control

## COc1cccc(C(=O)c2ccccc2NC(C)=O)c1
[9]
  T/C: 93 % of control
[10]
  T/C: 94 % of control
[11]
  T/C: 93 % of control

## C[N+](C)(C)CCO
dose: 50.0 mg/kg/injection, schedule: Q04DX003 (ip), vehicle: none
  T/C: 99 % of control and 105 % of control
dose: 100.0 mg/kg/injection, schedule: Q04DX003 (ip), vehicle: none
  T/C: 97 % of control and 102 % of control
[3]
  T/C: 95 % of control
dose: 200.0 mg/kg/injection, schedule: Q04DX003 (ip), vehicle: none
  T/C: 96 % of control and 99 % of control
[4]
  T/C: 96 % of control
[5]
  T/C: 106 % of control

## CCC(C)C(C#N)(CCN1CCCCC1)Cc1cccc2ccccc12 (centres undefined)
[1]
  T/C: 109 % of control
[2]
  T/C: 98 % of control
[17]
  T/C: 96 % of control
[14]
  T/C: 95 % of control

## CC(=O)OC1CCC2(C)C(=CC=C3C2=CCC2(C)C(=O)CCC32)C1 (centres undefined)
dose: 50.0 mg/kg/injection, schedule: Q01DX009 (ip), vehicle: saline with Tween-80
  T/C: 87 % of control
[17]
  T/C: 90 % of control
dose: 200.0 mg/kg/injection, schedule: Q01DX009 (ip), vehicle: saline with Tween-80
  T/C: 90 % of control

## CCOC(=O)NOP(=O)(N1CC1(C)C)N1CC1(C)C (centres undefined)
[12]
  T/C: 207 % of control
[13]
  T/C: 86 % of control

## Cc1nc(-c2ccccc2)oc1-c1ccccc1
[3]
  T/C: 92 % of control
[4]
  T/C: 95 % of control
[5]
  T/C: 92 % of control

## COc1ccc(-c2ccccc2)cc1C(=O)CCC(=O)O
dose: 100.0 mg/kg/injection, schedule: Q01DX001 (ip), vehicle: saline
  T/C: 100 % of control
dose: 200.0 mg/kg/injection, schedule: Q01DX001 (ip), vehicle: saline
  T/C: 96 % of control
dose: 400.0 mg/kg/injection, schedule: Q01DX001 (ip), vehicle: saline
  T/C: 96 % of control

## CCCCCCCCCCCCCCCOc1ccc(C=Nc2ccc(C)cc2)cc1
[14]
  T/C: 93 % of control
[15]
  T/C: 102 % of control
[16]
  T/C: 102 % of control

## Cc1ccc(C(=O)CCCC(=O)O)c(O)c1
dose: 100.0 mg/kg/injection, schedule: Q01DX001 (ip), vehicle: Klucel (hydroxypropylcellulose) (HPC)
  T/C: 96 % of control
[6]
  T/C: 97 % of control
[14]
  T/C: 102 % of control
dose: 200.0 mg/kg/injection, schedule: Q01DX001 (ip), vehicle: Klucel (hydroxypropylcellulose) (HPC)
  T/C: 104 % of control
[7]
  T/C: 93 % of control
[15]
  T/C: 112 % of control
dose: 400.0 mg/kg/injection, schedule: Q01DX001 (ip), vehicle: Klucel (hydroxypropylcellulose) (HPC)
  T/C: 95 % of control
[8]
  T/C: 92 % of control
[16]
  T/C: 100 % of control
